Columns and labels:
[1] = Effect of particle size on antioxidant activity (Rancimat induction time) in palm oil; conditions: 200 ppm in palm oil; Rancimat 120° C.
Protocol: (§2) Effect of particle size analysis on antioxidant activity is analysed with the help of Rancimat (Metrohm 743) which gives oxidative stability index based on the induction time (h). Rancimat analysis is carried out at two different temperature in order to set relationship between induction time and temperature of the studies.
(§3) In this, we have analyzed the particle size of samples with the help of Particle Size Analyzer (Microtrac, S3500) and its antioxidant activity with the help of Rancimat (Metrohm 743).

[2] = Para-anisidine value of palm oil on storage
Protocol: (§4) The shelf life of oil is studied by carrying out chemical analysis, which include studying peroxide value (represents extent of primary oxidation), Para-anisidine value (represents extent of secondary oxidation) and totox value (reflects total oxidation of oil). These parameters are determined for 1 kg of untreated oil and treated oil at every 15 days interval for samples stored at ambient temperature and at every 7 days interval for samples stored at 50° C. The treated oil being, the oil upon addition of 200 ppm of TBHQ (sample-A), 200 ppm of BHA (sample-B), 200 ppm and 500 ppm of pulverized green tea extract with 90% polyphenol (sample-C), 200 ppm and 500 ppm of rosemary extract (sample-D), 200 ppm and 500 ppm of green tea extract after cryogenic grinding (sample-E), 200 ppm and 500 ppm of crude green tea extract (sample-F) and PRESOL at 200 ppm and 500 ppm. The untreated oil is the control sample without any antioxidant.
(§5) The threshold limit for per oxide value under which oil can be used for safe consumption is 10 meq of O2/Kg oil. Similarly, the threshold limit of para-anisidine value and Totox value is 10 and 30, respectively.

[3] = Frying cycle analysis of palm oil (total polar compounds)
Protocol: (§1) Palm oil and sunflower oil with antioxidants added to it are obtained from a local refinery. Frying studies are carried out with control oil and by adding TBHQ (Sample A), BHA (Sample B), GT Pulverized (Sample C), ROS (Sample D), GT Cryo grinded (Sample E), GT Crude Extract (Sample F) and PRESOL, respectively to the oils. Experiments are carried out a concentration of 200 ppm and 500 ppm. Fresh potatoes of less reduced sugar content variety are used throughout the experiment which is purchased form a local supermarket. Oil samples are withdrawn from the fryer at the end of every day and stored at −4° C. until it is tested for quality parameters viz, total polar compounds. Polar compounds present in oil and fats are measured by column chromatography using standard method, ES ISO 8420:2012.

[4] = Frying cycle analysis of sunflower oil (total polar compounds)
Protocol: as §1

[5] = Synergism of TBHQ and PRESOL combination (Rancimat) in palm oil
Protocol: Synergism of TBHQ and PRESOL is analyzed in palm oil. If the frying industry is considered, synthetic antioxidant TBHQ is being added to the oils. […] In order to overcome this limitation, TBHQ is fortified with PRESOL and added to vegetable oils in order to increase the frying cycles which ultimately increases the shelf life of end products. […] The below table 25 illustrates all the combination of fortification of TBHQ and PRESOL used in palm oil to illustrate maximum activity of fortified combination. Synergism is calculated based on the below equation: [formula]

[6] = Estimation of shelf life of palm oil (Rancimat temperature extrapolation); conditions: 200 ppm
Protocol: (§6) This is an aid for estimating the shelf life of oils and fats. The extrapolation makes use of the relationship between the measured induction time and the temperature given by van't Hoff's law. Several measurements are made at different temperatures and then extrapolated to the storage temperature. The values so obtained allow estimation of the storage stability of the oil or fat containing PRESOL.
(§7) The shelf life is calculated using Rancimat shelf life calculator.

[7] = Oil stability index (Rancimat) of sunflower oil; conditions: 200 ppm
Protocol: (§8) As used herein, ‘Oil Stability Index (OSI)’ is an American Oil Chemists Society (AOCS) approved method that determines the relative resistance of fat and oil samples to oxidation, which is defined by the following equation—
(§9) The oil stability index is determined using the Metrohm's Rancimat (Metrohm 743 Rancimat).
4.0 g of sunflower oil is weighed into the reaction vessel. The reaction vessel filled with oil is placed in a heating block. The temperature of the block is maintained at 80° C., 100° C. and 120° C., respectively. The oil is heated at the said temperatures, followed by passing air at a flow rate of 20 L/h. Flowing of air through the oil produces peroxides during primary oxidation and organic acids having low molecular weight, aldehydes and ketones with typical rancid odor during the secondary oxidation phase. These compounds are conveyed by the air flow into measurement vessel containing distilled water where conductivity is being checked continuously by sensor.

[8] = Oil stability index (Rancimat) of palm oil; conditions: 200 ppm
Protocol: as §8, §9
4.0 g of palm oil is weighed into the reaction vessel. The reaction vessel filled with oil is placed in a heating block. The temperature of the block is maintained at 100° C., 120° C. and 140° C., respectively. The oil is heated at the said temperatures, followed by passing air at a flow rate of 20 L/h. Flowing of air through the oil produces peroxides during primary oxidation and organic acids having low molecular weight, aldehydes and ketones with typical rancid odor during the secondary oxidation phase. These compounds are conveyed by the air flow into measurement vessel containing distilled water where conductivity is being checked continuously by sensor.

[9] = Peroxide value of palm oil on storage
Protocol: as §4, §5

[10] = Effect of particle size on antioxidant activity (Rancimat induction time) in sunflower oil; conditions: 200 ppm in sunflower oil; Rancimat 100° C.
Protocol: as §2, §3

[11] = Estimation of shelf life of sunflower oil (Rancimat temperature extrapolation); conditions: 200 ppm
Protocol: as §6, §7

[12] = Shelf life of canola oil; conditions: 200 ppm
Protocol: D. Determination of Shelf Life of Canola Oil in the Presence of PRESOL • Shelf life of canola oil is analyzed upon adding 200 ppm of TBHQ (sample-A), BHA (sample-B), green tea extract with 90% polyphenol (sample-C), rosemary extract (sample-D), green tea extract after cryogenic grinding (sample-E), and PRESOL, respectively to canola oil.

[13] = Totox value of palm oil on storage; conditions: ambient temperature
Protocol: as §4, §5

[14] = ambient temperature, day 0, 200 ppm
[15] = ambient temperature, day 15, 200 ppm
[16] = ambient temperature, day 30, 200 ppm
[17] = ambient temperature, day 45, 200 ppm
[18] = ambient temperature, day 60, 200 ppm
[19] = ambient temperature, day 75, 200 ppm
[20] = ambient temperature, day 90, 200 ppm
[21] = ambient temperature, day 105, 200 ppm
[22] = ambient temperature, day 120, 200 ppm
[23] = ambient temperature, day 135, 200 ppm
[24] = ambient temperature, day 150, 200 ppm
[25] = ambient temperature, day 165, 200 ppm
[26] = ambient temperature, day 180, 200 ppm

## CC(C)(C)c1cc(O)ccc1O [Sample A, tertiary butyl hydroquinone]
[1]
  Induction Period (h) of PO at 120° C.: 20.93 h
[2]; 50° C., day 0, 200 ppm
  Para-anisidine value: 2.69
[2]; 50° C., day 7, 200 ppm
  Para-anisidine value: 3.062
[2]; 50° C., day 15, 200 ppm
  Para-anisidine value: 3.296
[2]; 50° C., day 22, 200 ppm
  Para-anisidine value: 3.395
[2]; 50° C., day 30, 200 ppm
  Para-anisidine value: 3.74
[2]; 50° C., day 37, 200 ppm
  Para-anisidine value: 4.052
[2]; 50° C., day 45, 200 ppm
  Para-anisidine value: 4.209
[2]; 50° C., day 52, 200 ppm
  Para-anisidine value: 4.685
[2]; 50° C., day 60, 200 ppm
  Para-anisidine value: 5.091
[2]; 50° C., day 67, 200 ppm
  Para-anisidine value: 5.208
[2]; 50° C., day 75, 200 ppm
  Para-anisidine value: 5.514
[2]; 50° C., day 82, 200 ppm
  Para-anisidine value: 5.601
[2]; 50° C., day 90, 200 ppm
  Para-anisidine value: 5.827
[2]; [14]
  Para-anisidine value: 2.566
[2]; [15]
  Para-anisidine value: 3.062
[2]; [16]
  Para-anisidine value: 3.045
[2]; [17]
  Para-anisidine value: 3.113
[2]; [18]
  Para-anisidine value: 2.615
[2]; [19]
  Para-anisidine value: 2.731
[2]; [20]
  Para-anisidine value: 2.772
[2]; [21]
  Para-anisidine value: 3.217
[2]; [22]
  Para-anisidine value: 3.303
[2]; [23]
  Para-anisidine value: 3.438
[2]; [24]
  Para-anisidine value: 3.473
[2]; [25]
  Para-anisidine value: 3.639
[2]; [26]
  Para-anisidine value: 3.808
[3]; palm oil
  frying cycle after which threshold limit for total polar compounds is crossed: 40 cycle
[3]; palm oil (PO), potato chips, 200 ppm
  Number of batches fried: 40 batches
[4]; 200 ppm, frying cycle 0
  Total Polar compounds of sunflower oil: 3.746
[4]; 200 ppm, frying cycle 8
  Total Polar compounds of sunflower oil: 6.375
[4]; 200 ppm, frying cycle 16
  Total Polar compounds of sunflower oil: 13.632
[4]; 200 ppm, frying cycle 24
  Total Polar compounds of sunflower oil: 18.505
[4]; 200 ppm, frying cycle 32
  Total Polar compounds of sunflower oil: 23.123
[4]; 200 ppm, frying cycle 40
  Total Polar compounds of sunflower oil: 28.648
[4]; sunflower oil
  frying cycle after which threshold limit for total polar compounds is crossed: 40 cycle
[4]; sunflower oil (SFO), potato chips, 200 ppm
  Number of batches fried: 40 batches
[5]; 50 ppm alone
  Increase in OSI (%): 5.12%
  Induction Time (H) at 120 C.: 9.57 H
  OSI: 1.054
  increase in induction time as compared to control (X-C): 0.49
[5]; 100 ppm alone
  Increase in OSI (%): 17.53%
  Induction Time (H) at 120 C.: 11.01 H
  OSI: 1.21
  increase in induction time as compared to control (X-C): 1.93
[5]; 200 ppm alone
  Increase in OSI (%): 36.24%
  Induction Time (H) at 120 C.: 14.24 H
  OSI: 1.57
  increase in induction time as compared to control (X-C): 5.16
[6]
  Shelf Life (days) at 30° C.: 617.0 days
[7]; 80° C.
  Induction Time: 109.76 h
  Oxidative Stability Index (OSI): 3.01
[7]; 100° C.
  Induction Time: 26.82 h
  Oxidative Stability Index (OSI): 2.88
[7]; 120° C.
  Induction Time: 6.13 h
  Oxidative Stability Index (OSI): 2.61
[8]; 100° C.
  Induction Time: 95.76 h
  Oxidative Stability Index (OSI): 2.30
[8]; 120° C.
  Induction Time: 20.93 h
  Oxidative Stability Index (OSI): 2.17
[8]; 140° C.
  Induction Time: 5.26 h
  Oxidative Stability Index (OSI): 2.15
[9]; 50° C., day 0, 200 ppm
  Peroxide value: 0.482
[9]; 50° C., day 7, 200 ppm
  Peroxide value: 1.309
[9]; 50° C., day 15, 200 ppm
  Peroxide value: 1.836
[9]; 50° C., day 22, 200 ppm
  Peroxide value: 1.887
[9]; 50° C., day 30, 200 ppm
  Peroxide value: 2.005
[9]; 50° C., day 37, 200 ppm
  Peroxide value: 3.074
[9]; 50° C., day 45, 200 ppm
  Peroxide value: 3.686
[9]; 50° C., day 52, 200 ppm
  Peroxide value: 4.102
[9]; 50° C., day 60, 200 ppm
  Peroxide value: 4.491
[9]; 50° C., day 67, 200 ppm
  Peroxide value: 4.75
[9]; 50° C., day 75, 200 ppm
  Peroxide value: 4.893
[9]; 50° C., day 82, 200 ppm
  Peroxide value: 5.209
[9]; 50° C., day 90, 200 ppm
  Peroxide value: 5.395
[9]; [14]
  Peroxide value: 0.465
[9]; [15]
  Peroxide value: 0.762
[9]; [16]
  Peroxide value: 1.417
[9]; [17]
  Peroxide value: 1.558
[9]; [18]
  Peroxide value: 1.771
[9]; [19]
  Peroxide value: 1.855
[9]; [20]
  Peroxide value: 1.814
[9]; [21]
  Peroxide value: 1.88
[9]; [22]
  Peroxide value: 1.91
[9]; [23]
  Peroxide value: 1.951
[9]; [24]
  Peroxide value: 2.222
[9]; [25]
  Peroxide value: 2.31
[9]; [26]
  Peroxide value: 2.403
[10]
  Induction Period (h) of SFO 100° C.: 26.82 h
[11]
  Shelf Life (days) at 30° C.: 171.0 days
[12]
  Shelf Life (No. Of Days): 181 days
[13]; day 0, 200 ppm
  Totox value: 3.497
[13]; day 15, 200 ppm
  Totox value: 4.585
[13]; day 30, 200 ppm
  Totox value: 5.879
[13]; day 45, 200 ppm
  Totox value: 6.228
[13]; day 60, 200 ppm
  Totox value: 6.157
[13]; day 75, 200 ppm
  Totox value: 6.441
[13]; day 90, 200 ppm
  Totox value: 6.400
[13]; day 105, 200 ppm
  Totox value: 6.976
[13]; day 120, 200 ppm
  Totox value: 7.122
[13]; day 135, 200 ppm
  Totox value: 7.339
[13]; day 150, 200 ppm
  Totox value: 7.916
[13]; day 165, 200 ppm
  Totox value: 8.258
[13]; day 180, 200 ppm
  Totox value: 8.614

Reference: patent US20140248361A1, “HERBAL EXTRACT COMPOSITION AND A PROCESS THEREOF” (PRASAN SOLUTIONS (INDIA) PVT LTD, priority 2012, published 2014)
